Values quoted from earlier work as cited in patent publication US6436449B2, “Use of a composition” (priority 2000, dated 2002).

Legend:
[1] = injected into mice; US 4,543,212
blood platelets = conditions: in vitro; US 4,543,212
burn eschars = conditions: mice; US 4,543,212

xeronine
anti-inflammatory action [1]: excellent anti-inflammatory agents
aggregation of blood platelets by adenosine diphosphate (blood platelets): inhibited
debridement of burn eschars (burn eschars): caused the debridement of burn eschars
